Source: ChEMBL document CHEMBL1201862, “PubChem BioAssay data set” (2004)
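Cells were grown in 96-well plates and exposed to each compound for 48 hours at five concentrations; endpoints were interpolated linearly between bracketing concentrations, or set to the highest concentration if not reached. Abbreviation: GI50, concentration required for 50% inhibition of growth.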 The source made the active and inactive calls. No stated cut-off is given here; in the data, active = GI50 up to about 1.1 µM and inactive = higher.

Tests used:
Assay in all cases: NCI anticancer screen, dose series, 48 h
ACHN = tested on: ACHN
A498 = tested on: A498
BT-549 = tested on: BT-549
MDA-MB-231 = tested on: MDA-MB-231
HOP-18 = tested on: HOP-18
SNB-78 = tested on: SNB-78
786-0 = tested on: 786-0
RXF 631 = tested on: RXF 631
LXFL 529 = tested on: LXFL 529

Measured: GI50

CCOC(=O)NC(Nc1ncccn1)(C(F)(F)F)C(F)(F)F
inactive: ACHN > 100 µM | A498 > 100 µM | BT-549 > 100 µM | MDA-MB-231 > 100 µM

Cc1nc(O)nc(O)c1/C=C/C(=O)O
inactive: A498 > 1000 µM | HOP-18 > 1000 µM | SNB-78 > 1000 µM

CCN1c2ccccc2-n2c(C)nnc2-c2c(-c3ccccc3)n[nH]c21
inactive: ACHN 14.3 µM | MDA-MB-231 18.9 µM

Cc1cc(NC(=S)Nc2ccccc2)c(NC(=S)Nc2ccccc2)cc1C
inactive: A498 36.1 µM | HOP-18 43.2 µM

CC1C(=O)C(C)C(c2ccco2)N(N=O)C1c1ccco1 (stereo not given)
inactive: A498 > 100 µM | HOP-18 > 67.1 µM | SNB-78 > 100 µM

O=C1CCC(=O)C1=NNc1ccccc1
inactive: ACHN > 100 µM | A498 43.6 µM | 786-0 > 100 µM | HOP-18 > 100 µM | RXF 631 > 100 µM | SNB-78 > 100 µM

CCOc1ncn(-c2ccc(NC(=S)Nc3ncccn3)cc2)n1
inactive: BT-549 20.8 µM | MDA-MB-231 24.8 µM

CC(=O)OC1COC(N2c3ccccc3[C@@H]3CCc4c([nH]c5ccccc45)[C@@H]32)C(OC(C)=O)C1OC(C)=O.CC(=O)OC1COC(N2c3ccccc3[C@H]3CCc4c([nH]c5ccccc45)[C@H]32)C(OC(C)=O)C1OC(C)=O (stereo not given in full)
inactive: A498 17.7 µM | BT-549 56.9 µM | MDA-MB-231 14 µM

CC1=Nc2c(N)nc(N)nc2N(C)C1
inactive: ACHN > 100 µM | BT-549 > 100 µM | MDA-MB-231 > 100 µM

CC(Sc1ccccc1)C(CO)(CO)[N+](=O)[O-] (stereo not given)
inactive: ACHN 16.9 µM | HOP-18 21.9 µM | LXFL 529 13.7 µM | SNB-78 22.3 µM

CCC1C(C#N)=C(O)NC(O)=C1C#N
inactive: ACHN > 100 µM | A498 > 100 µM | HOP-18 > 100 µM | RXF 631 > 100 µM | LXFL 529 > 100 µM | SNB-78 > 100 µM

CCP(=O)(CC)C(Cl)(Cl)C(O)C(Cl)(Cl)Cl (stereo not given)
inactive: ACHN > 100 µM | MDA-MB-231 > 100 µM

O=C(CCN1CCOCC1)/C(=C/c1ccccc1)c1ccccc1
inactive: A498 10.1 µM | HOP-18 16.7 µM | SNB-78 5.51 µM

C=C1C(=O)OC2C[C@@]3(C)CCCC(=C)C3CC12 (stereo not given in full)
inactive: ACHN 14 µM | A498 6.89 µM | HOP-18 17.5 µM | LXFL 529 3.2 µM | SNB-78 3.27 µM

CC(=O)c1c(-c2ccco2)c(C#N)c(=S)n(C2OC(CO)C(O)C(O)C2O)c1-c1ccccc1 (stereo not given)
inactive: ACHN > 100 µM | BT-549 > 100 µM | MDA-MB-231 > 100 µM

COc1ccc(-c2cc(O)c3c(C)ccnc3n2)cc1
inactive: ACHN 21.2 µM | A498 14.3 µM | BT-549 33.7 µM | MDA-MB-231 49.5 µM
